Results reported in patent US20030166531A1, “Methods for modulating an immune response by modulating the interaction between CTLA4 and PP2A” (Genetics Institute, Inc., priority 2001, published 2003).
Blank lines part the entries; values can stand above or below the molecule they belong to.

What was measured:
[1] = biological target: mutant K-less CTLA4 (K152A/K155A/K156A) expressed in doxycycline-induced Jurkat T cells (UniProt P16410); assay: cell-based or functional assay
[2] = system: IL-2 gene transcription; assay: Luciferase reporter assay under IL-2 promoter/enhancer in CTLA4-transfected Jurkat T cells stimulated with SEE and APCs; format: cell-based; conditions: doxycycline-induced Jurkat cells, TCR-CTLA4 co-ligation with SEE and APCs, at maximal RLU response
Method: FIGS. 2A-2B depict the inhibition of IL-2 promoter/enhancer controlled luciferase reporter gene transcription by wild type (FIG. 2A) or K-less (FIG. 2B) CTLA4 molecules. Wild type or K-less CTLA4-transfected T cells were stimulated for 4 hours with antigen presenting cells and increasing concentrations of SEE antigen in the absence (upper data points) or presence (lower data points) of doxycycline (5 μg/ml). Cells were lysed and a luciferase assay was performed.
The panel of Jurkat T cells transfected with a regulatable, doxycycline sensitive CTLA4 cDNA has been previously described (Carreno, B. M. et al. (2000) J. Immunol. 165:1352-1356; Baroja, M. L. et al. (2000) J. Immunol. 164:49-55). A luciferase reporter cDNA under the control of the interleukin-2 promoter and enhancer elements was transfected in these cells, and clones isolated after limiting dilution were used for these experiments. A 0.45 lymphoblastoid B cell line that expresses HLA-DR1 and B7.1 was also used. Both cell lines were cultured under standard conditions.
Doxycycline treated Jurkat T cells (0.25×10^6 cells/group) were stimulated for 4 hours with 0.45 lymphoblastoid B cells (ratio 2:1) preincubated overnight with different concentrations of SEE. Luciferase assays were performed using the Promega Luciferase Assay System (Promega, Madison, Wis.). […]

[3] = accumulates in filter feeding organisms such as shellfish; cited from earlier work

Chain of UniProt P16410 (P16410 36-223, stated change not applied): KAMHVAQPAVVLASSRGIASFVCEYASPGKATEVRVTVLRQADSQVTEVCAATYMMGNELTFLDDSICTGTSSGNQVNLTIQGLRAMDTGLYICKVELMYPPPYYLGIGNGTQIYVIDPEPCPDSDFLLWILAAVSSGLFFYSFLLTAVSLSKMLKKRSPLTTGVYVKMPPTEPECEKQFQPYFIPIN

inhibition of luciferase activity (IL-2 promoter/enhancer reporter) upon TCR-CTLA4 co-ligation [1]: 70 to 80%
Molecule: endogenous PP2AA (65 kD regulatory subunit of PP2A) of Jurkat T cells (from UniProt P30153 2-589)

Molecule: wild type CTLA4: wild type CTLA4 expressed from a doxycycline-regulatable cDNA in transfected Jurkat T cells
inhibition of luciferase activity (IL-2 promoter/enhancer reporter) [2]: 35-55%

Molecule: C=C1[C@@H](O)[C@@H]2O[C@]3(CC[C@H](/C=C/[C@@H](C)[C@@H]4CC(C)=C[C@@]5(O[C@H](C[C@@](C)(O)C(=O)O)CC[C@H]5O)O4)O3)CC[C@H]2O[C@@H]1[C@@H](O)C[C@H](C)[C@H]1O[C@@]2(CCCCO2)CC[C@H]1C [okadaic acid]
toxicity when consumed by humans [3]: causes diarrhetic shellfish poisoning
